The subject of data set [1] is mature adipocytes (3T3-L1). Nature of the data set: Cell viability assay (MTS) in mature adipocytes. The note with it: for effect on viability of mature adipocytes: individual compound, 24 and 48 h; for effect on cell viability: compound alone at 25 and 50 μM.
Experimental: (§5) 3T3-L1 mouse fibroblast were obtained from American Type Culture Collection (Manassas, Va.) and were cultured in Dulbecco's modified Eagle's medium (DMEM) (GIBCO, Grand Island, N.Y.) containing 10% bovine calf serum (BCS) until confluent. Two days after confluency, the cells were stimulated to differentiate with an induction medium (hereinafter “MDI”), which comprises DMEM containing 10% FBS, 167 nM insulin (Sigma), 0.5 μg of isobutylmethylxanthine (IBMX) (Sigma), and 1 μm of dexamethasone (Sigma) for two (2) days. Cells were then maintained on 10% FBS/DMEM with 167 nM insulin for another 2 days, followed by culturing with FBS/DMEM for an additional four days, at which time more than 90% of cells were mature adipocytes with accumulated fat droplets. All media contained 100 U/ml of penicillin, 100 μg/ml of streptomycin, and 292 μg/ml of glutamine. Cells were maintained at 37° C. in a 5% CO2 humidified environment.
(§6) Cell viability assay. Adipocytes were incubated with dimethyl sulfoxide (DMSO) (0.02%) or test compounds. Prior to measuring viability, treatment media were removed and replaced with 100 μl fresh 10% FBS/DMEM medium and 20 μl MTS solution (Promega, Madison, Wis.). Cells were then returned to the incubator for an additional 2 h before 25 μl of 10% sodium dodecyl sulfate (SDS) was added to stop the reaction. The absorbance was measured at 490 nm in a plate reader (μQuant Bio-Tek Instruments, Inc. Winooski, Vt.) to determine the formazan concentration, which is proportional to the number of live cells.
(§7) Adipocytes were treated with XN (25, 50 μM) and HK (25, 50, 75 μM) as individual compounds or in combination for 12, 24, and 48 h. After treatment, cell viability was determined by the MTS assay, as described in Example 1.
(§8) Adipocytes were treated with XN (25, 50 μM) and G (50, 100 μM) as individual compounds or in combination for 24 and 48 h. After treatment, cell viability was determined by the MTS assay, as described in Example 1.
(§9) Adipocytes were treated with XN (25, 50, 75 μM) and GS (25, 50, 75 μM) as individual compounds or in combination for 24 and 48 h. After treatment, cell viability was determined by the MTS assay, as described in Example 1.
Data set [2] has as its system mature adipocytes (3T3-L1). Nature of the data set: Apoptosis assay (ApoStrand ELISA, single stranded DNA) in mature adipocytes. It is filed as cell-based, mouse. Conditions: for effect on apoptosis of mature adipocytes (ssDNA): individual compound, XN e.g. 50 μM at 48 hrs; for increased apoptosis, alone: XN or GS alone; for effect on apoptosis: compound alone at 25 and 50 μM; for % Increase in apoptosis mean ± s.e.m.: mature adipocytes, concentration (μM) is the number in the treatment label. The protocol: Apoptosis assays. For the assessment of apoptosis, the ApoStrand ELISA Apoptosis Detection Kit (Biomol, Plymouth Meeting, Pa.) was used. This kit detects single stranded DNA, which occurs in apoptotic cells but not in necrotic cells or in cells with DNA breaks in the absence of apoptosis. Adipocytes were incubated with DMSO or the test compounds for the indicated times and at the indicated concentrations. Thereafter, treatment media was removed and the cells were fixed for 30 min and assayed according to the manufacturer's instructions.
The enhanced reduction in cell viability by XN plus HK was evaluated to determine if the reduction in cell viability was attributable to apoptosis.
The effects of XN and G on mature adipocytes apoptosis were investigated by measuring the changes of the levels of single strained DNA (ssDNA) in the cells.
(§1) The enhanced reduction in cell viability by XN plus GS was evaluated to determine if the reduction in cell viability was attributable to apoptosis.
(In general: An ELISA detects its analyte on a solid surface through an enzyme-linked reagent.)

Data set [3] deals with mature adipocytes. Nature of the data set: Lipid content of mature adipocytes after 7-day treatment. It is filed as cell-based, mouse. The note with it: individual compound, XN 6 μM and 12 μM, GS 12 μM and 25 μM, seven days.
For data set [4], the system named is caspase-3/7. Kind of data set: Caspase-3 and 7 activity assay (Caspase-Glo 3/7) in mature adipocytes. It is filed as cell-based, mouse. The note with it: for caspase-3/7 activity: individual compound, XN 25, 50 μM, HK 25, 50, 75 μM, 12 h. How it is done:
Caspase-3 and 7 activity assay. Adipocytes were incubated with DMSO or the test compounds and the indicated times and concentrations. Thereafter, 100 μl of caspase-Glo 3/7 reagent (Promega, Madison, Wis.) was added to each sample and the cells were incubated for 1 h and assayed according to the manufacturer's instructions.
Effects of XN and HK on caspase-3/−7 activation and PARP cleavage. To confirm apoptosis in response to combined treatment with XN and HK, the activity of caspase-3/7 was evaluated.
The caspases 3/7 activity was measured using a commercially available Caspase Glo 3/7 assay kit (Promega, Madison, Wis.), as described in Example 1.

Data set [5] concerns mature adipocytes. Kind of data set: Hoechst staining of mature adipocytes. It is filed as cell-based, mouse. The note with it: XN or GS alone. The protocol:
as §1

Data set [6] relates to mature adipocytes. Nature of the data set: Lipolysis in mature adipocytes. It is filed as cell-based, mouse. The note with it: for lipolysis: XN or GS alone, 12 h incubation. How it is done: Effects of XN and HK on lipolysis in mature adipocytes. Mature adipocytes were incubated with either control or test compounds for indicated times.
In data set [7] the test system is Bcl-2 protein. Kind of data set: Bcl-2 protein expression (Western blot). It is filed as cell-based, mouse. Conditions: compound individually. The protocol: (§2) Western blot analysis. Following the indicated treatment, whole cell extracts were prepared by washing the cells with phosphate buffered saline (PBS) and suspending the cells in a lysis buffer (20 mM Tris, pH 7.5, 150 mM sodium chloride, 1 mM EDTA, 1 mM EGTA, 1% Triton X-100, 2.5 mM sodium pyrophosphate, 1 mM β-glycerophosphate, 1 mM sodium vanadate (Na3VO4), 1 μg/ml aprotinin, 1 μg/ml leupeptin, and 100 μg/ml phenylmethylsulfonyl fluoride). After 30 min of rocking at 4° C., the mixtures were centrifuged (10,000×g) for 10 min, and the supernatants were collected as whole-cell extracts. […] The protein concentration was determined by the method of Bradford with bovine serum albumin as the standard. […] Samples were heated to 70° C. for 10 min, separated by 12% acrylamide gels, and analyzed by immunoblotting. […]
(§3) Quantitative analysis of Western blot data. […] For statistical analysis, all data were expressed as integrated density values (IDV). For PARP, Bcl-2, and cytochrome c, IDVs were calculated as the density values of the specific protein bands/β-actin density values and expressed as percentage of the control.
To further investigate whether XN and GS affects the intrinsic apoptosis induction pathway, the expression of the anti-apoptotic Bcl-2 protein was evaluated by western blotting.
In general terms: Immunoblotting shows a protein as a band on a membrane.

The test system of data set [8] is mature adipocytes (3T3-L1). The note with it: mouse, 48 h.
Experimental: as §5, §6, §7, §8, §9
Data set [9] deals with Poly (ADP-ribose) polymerase (PARP). Kind of data set: PARP cleavage in mature adipocytes (Western blot). The note with it: compound alone. It is filed as cell-based, mouse. The protocol: as §2, §3
(§4) Effects of XN and HK cytochrome c release from mitochondria and PARP cleavage in mature adipocytes. To further investigate whether XN and HK affects the intrinsic apoptosis induction pathway, the induction of cytochrome c release was evaluated by Western blotting.

The subject of data set [10] is 3T3-L1 pre-adipocytes. Kind of data set: Adipogenesis: lipid content (AdipoRed) during maturation of pre-adipocytes. It is filed as cell-based, mouse. Conditions: compound alone, days 0-6 of differentiation. The protocol: Quantification of lipid content and oil red O staining. Lipid content was measured using a commercially available kit (AdipoRed Assay Reagent; Cambrex Bio Science, Walkersville, Inc.). Briefly, test compositions and a 0.01% DMSO control were added with the induction medium for days 0-6 of adipogenesis. Medium was changed every 2 days. On day 6, intracellular lipid content was measured by AdipoRed Assay. Cells were washed with PBS (pH 7.4) and 200 μl of PBS was added to the wells. About 5 μl of AdipoRed reagent was added to each well. After 10 min, the plates were placed in the fluorometer and fluorescence was measured with excitation wavelength of 485 nm and emission wavelength of 572 nm. To visualize lipid content, treated cells were stained with oil red O and hematoxylin as described by Suryawan and Hu. After mounting with glycerol gelatin, three images for each dish were captured using ImagePro software (MediaCybernetics, Silver Spring, Md.).
Effects of XN and HK on adipogenesis of post-confluent pre-adipocytes during maturation. Post-confluent pre-adipocytes were induced to differentiate for 0-6 days in differentiation medium with or without XN or HK for indicated times. […]
To determine the synergistic effects of XN and GS on adipogenesis, the effect of XN and GS on inhibiting lipid accumulation in (FIG. 15A) and viability of (FIG. 15B) maturing 3T3-L1 adipocytes was determined.

For data set [11], the system named is cytochrome c. Nature of the data set: Cytochrome c release from mitochondria (Western blot). The note with it: compound alone at 50 μM. It is filed as cell-based, mouse. The protocol: as §2, §3, §4

Where two headings read alike, the source gives them in different places.

For the compound `O=c1c(-c2ccc(O)cc2)coc2cc(O)cc(O)c12` [G, 4,5,7-trihydroxyisoflavone], in [1] (XN 25, 50 μM, G 50, 100 μM), the “effect on viability of mature adipocytes” value is “did not affect the viability”. The “effect on apoptosis of mature adipocytes (ssDNA)” value in data set [2] is “did not affect apoptosis”.

Consider `C/C=C1\C(=O)C[C@H]2[C@@H]3CCC4=CC(=O)CC[C@]4(C)[C@H]3CC[C@]12C` [GS, Guggulsterone], for which, in data set [1] (XN or GS 25, 50, 75 μM), the “effect on viability of mature adipocytes” value is “decreased the viability of mature adipocytes in a dose-dependent and time-dependent manner”. In addition, the “lipid accumulation in mature adipocytes” value in [3] is on record as “decreased lipid accumulation”. In [4] (GS alone at 75 μM), the “caspase 3/7 activity” value is on record as “increased caspase activity”. The “increased apoptosis, alone” value in data set [2] is listed as “about 20%”. Moreover, the “Hoechst staining, individual treatments” value in [5] is on record as “small increase in staining”. The lipolysis entry in data set [6] is reported as “increased lipolysis slightly”. For the same compound, the Bcl-2 protein level result in [7] is “decreased Bcl-2”.

Regarding `C=CCc1ccc(O)c(-c2ccc(O)c(CC=C)c2)c1` [HK, Honokiol], in data set [1] (Mus musculus, 3T3-L1, 48 h, read-out: decreased cell viability), the cytotoxicity at 75 µM is 9.1 ± 2.5%. The “effect on cell viability” value in data set [1] (48 h) is “no effect”. Further, the “% Decrease in viability mean ± s.e.m.” value in [8] is given as −1.8 ± 1.5%. Further, the “effect on PARP cleavage” value in data set [9] is given as “neither compound alone may affect”. Also, the caspase-3/7 activity result in [4] was “increased caspase-3/7 activity in a dose-dependent manner”. Also, the “lipid accumulation during maturation” value in data set [10] is reported as “increased lipid accumulation”. Besides, the increased apoptosis in data set [2] (alone at 75 μM, 24 h, P<0.05) stood at 70.4±15.9%. In addition, the effect on apoptosis result in [2] (24 h) was “no effect”. Moreover, the “% Increase in apoptosis mean ± s.e.m.” value in [2] (24 h, listed as HK50) is recorded as 10.8 ± 5.9%; in data set [2] (24 h, listed as HK75), 70.4 ± 15.9%. In data set [11], the “effect on cytochrome c release” value is on record as “neither 50 μM of XN nor 50 μM of HK had an effect”.

As to `COc1cc(O)c(CC=C(C)C)c(O)c1C(=O)/C=C/c1ccc(O)cc1` [XN, Xanthohumol], the “effect on cell viability” value in data set [1] (48 h) is “no effect”. The “effect on viability of mature adipocytes” value in [1] (XN 25, 50 μM, G 50, 100 μM) is “decreased the viability of mature adipocytes in a dose-dependent and time-dependent manner”. Moreover, in data set [1] (XN or GS 25, 50, 75 μM), the “effect on viability of mature adipocytes” value was “decreased the viability of mature adipocytes in a dose-dependent and time-dependent manner”. In addition, in data set [1] (mature adipocytes, 48 h, concentration (μM) is the number in the treatment label), the “% Decrease in viability mean ± s.e.m.” value is −2.8 ± 1.5%. Also, the “effect on PARP cleavage” value in [9] is listed as “neither compound alone may affect”. Moreover, the “lipid accumulation in mature adipocytes” value in [3] was “decreased lipid accumulation”. In [4], the caspase-3/7 activity result is “increased caspase-3/7 activity in a dose-dependent manner”. The “lipid accumulation during maturation” value in data set [10] is given as “decreased lipid accumulation”. In data set [2], the “increased apoptosis, alone” value is “about 20%” and the “effect on apoptosis of mature adipocytes (ssDNA)” value is reported as “increased apoptosis”. Besides, in data set [2] (24 h), the effect on apoptosis entry is listed as “no effect” and the “% Increase in apoptosis mean ± s.e.m.” value is recorded as 51.0 ± 16.5%. The “Hoechst staining, individual treatments” value in data set [5] is listed as “small increase in staining”. For the same compound, in data set [11], the “effect on cytochrome c release” value was “neither 50 μM of XN nor 50 μM of HK had an effect”. Moreover, the increase in lipolysis in data set [6] (XN 50 μM alone) is recorded as 20%. Further, the lipolysis result in data set [6] is “increased lipolysis slightly”. Also, in data set [7], the Bcl-2 protein level entry is recorded as “decreased Bcl-2”.

Source of the values: patent US8101213B2, “Xanthohumol compositions and methods of using same” (The University of Georgia Research Foundation, Inc, priority 2007, dated 2012).
